Measurements from US10077288B2, “Hydroxystatin derivatives for the treatment of arthrosis” (Merck Patent GmbH, priority 2012, dated 2018).
Values belong to the molecule of their own block, whether it stands above or below them. *1 amine or outer side, *2 acyl side, *3 side chain or, on linkers, in order; H or OH if unused. Where a SMILES comes first, the peptide text is derived from it. [ ]: non-standard residue; d: D form. The star is where a group is joined. Ahppa(3S,4S) = O=C(C[C@H](O)[C@H](Cc1ccccc1)N[*:1])[*:2]; Sta = CC(C)C[C@H](N)[C@@H](O)CC(=O)O; Isovaleryl = CC(C)CC(=O)*

Experiments:
[1] = target: T1, cathepsin D isolated from the human liver (Homo sapiens, UniProt P07339); assay: In-vitro fluorescence assay for identification of cathepsin D inhibitors; format: biochemical; conditions: human liver cathepsin D 1.4 nM, pH 5.5; read-out: CatD assay IC50-(M)
T1 construct: cathepsin D isolated from the human liver (Sigma-Aldrich); purchased Sigma-Aldrich; host or cells: human liver (tissue-derived, not recombinant)
Method in brief: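 Continuous FRET assay: human liver cathepsin D (1.4 nM final) preincubated 10 min at room temperature with serially diluted compound in 100 mM sodium acetate, 1.25% DMSO, 0.25% Chaps, pH 5.5. Started with 5 μM MCA-GKPILFFRLK(Dnp)d-R-NH2; fluorescence increase (ex 340/em 450 nm) over 60 min at room temperature compared with no-compound control.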

[2] = tested on: bovine explants (cartilage degradation, liberation of GAG); assay: Cartilage explant assay: pH-induced cartilage degradation, GAG release; format: cell-based; conditions: Bos taurus, 72 h, pH 5.5, 3 days
Source text: EXAMPLE 5: CARTILAGE EXPLANT ASSAY
In order to investigate the effect of potential cathepsin D inhibitors on cartilage degradation, a pH-induced model based on bovine explants is used. The pH of the medium in which the explants are cultivated is matched here to the pathophysiological pH of an arthrotic knee. This pH is pH 5.5. In this ex vivo model, potential cathepsin D inhibitors are subsequently investigated for their action with respect to stopping of the cartilage degradation process. If the cartilage is destroyed, glycosaminoglycans (GAGs) are released into the cell culture supernatant. The amount of GAGs liberated can be determined quantitatively with the aid of DMMB (dimethylmethylene blue hydrochloride). If sulfated GAGs are detected using dimethylmethylene blue hydrochloride, the decrease in the absorption at 633 nm is utilised. […] In order to determine the concentration, a calibration line is also recorded using chondroitin sulfate.
1.) Procedure: pH-Induced Cartilage Degradation of Bovine Explants
The bovine explants are firstly prepared. The induction of the cartilage degradation is carried out in 96-multiwell plates. One explant is cultivated per well. In each case, 200 μl of DMEM (incubation medium pH 5.5) without FBS+30 μg/ml of ascorbic acid are added. Thus negative control, explants (n=4) are incubated at pH 7.4 (without FBS). This control is not included in the calculation of the data, but instead ensures that the pH change has the desired effect on the liberation of GAG. At this point, the substances to be tested are added. No pre-incubation of the explants is carried out. The explants are cultivated with the corresponding substances for 3 days in the incubator at 37° C. and 7.5% CO2.
In order to investigate the effect of cathepsin D inhibitors on the liberation of GAG (glycosaminoglycan), the substances are employed in the desired concentration and cultivated for 3 days. The compounds to be tested are tested in a first experiment in a concentration of 1 μM and 1% of DMSO. Substances which have an effect of >50% on the liberation of GAG (this corresponds to <50% of the control in the Assay Explorer) are tested in the next experiment at 100 nM and 1% of DMSO. Substances which have an effect of >50% on the liberation of GAG under these conditions (this corresponds to <50% of the control in the Assay Explorer) are tested in a concentration/effect relationship. The compounds here are investigated in the following concentrations: 30 μM, 10 μM, 3 μM, 1 μM, 0.3 μM, 0.1 μM, 0.03 μM, 0.01 μM.
The positive control used is pepstatin A with a concentration of 0.01 μM. The assay window is defined by the control (pH 5.5), defined as 0% effect, and the control pH 5.5+0.01 μM pepstatin A, defined as 100% effect. After incubation for 3 days, the cell culture supernatants are collected and stored at −20° C. or measured directly. The amount of liberated GAG is measured photometrically.
The effect (1 value) of the respective substance in % based on the positive control (pH 5.5+0.01 μM pepstatin A) and the negative control (pH 5.5) is reported for concentrations of 1 μM and 100 nM. The value represents the average of 4 replicants. In the determination of a concentration/effect relationship, an IC50 value is reported to the database (Assay Explorer).
The cell culture supernatants (200 μl) are either measured directly or stored at −20° C. […] A rapid colour reaction occurs, which is subsequently measured at 633 nm using a plate reader (for example Envision). […]

[3] = tested on: rat knee joint inflammation (CAR-induced); assay: Anti-hyperalgesic effect in animals: carrageenan-induced knee joint inflammation, Hargreaves test and swelling; format: in vivo; conditions: intra-articular administration 30 minutes before CAR; for CAR-induced swelling: rat knee joint
Protocol: EXAMPLE 6: INVESTIGATION OF THE ANTI-HYPERALGESIC EFFECT IN ANIMALS
In order to induce an inflammation reaction, a carrageenan solution […]) was injected intra-articularly on one side into a rat knee joint. The uninjected side was used for control purposes. Six animals per group were used. The […] was determined by means of a micrometer screw (medial-lateral on the knee joint), and the thermal hyperalgesia was determined by means of a directed infrared light source by the Hargreaves method (Hargreaves et al., 1988) on the sole of the foot. Since the site of inflammation (knee joint) is different from the site of measurement (paw sole), use is made here of the term secondary thermal hyperalgesia, the mechanism of which is of importance for the discovery of effective analgesics.
Experimental description of thermal hyperalgesia (Hargreaves test): the experimental animal is placed in a plastic chamber on a quartz sheet. Before testing, the experimental animal is firstly given about 5-15 minutes time to familiarise itself with the environment. As soon as the experimental animal no longer moves so frequently after the familiarisation phase (end of the exploration phase), the infrared light source, whose focus is in the plane of the glass bottom, is positioned directly beneath the rear paw to be stimulated. An experiment run is then started by pressing the button: infrared light results in an increase in the skin temperature of the rear paw. The experiment is terminated either by the experimental animal raising the rear paw (as an expression of the pain threshold being reached) or by automatic switching-off of the infrared light source when a prespecified maximum temperature has been reached. Light reflected by the paw is recorded as long as the experimental animal sits still. Withdrawal of the paw interrupts this reflection, after which the infrared light source is switched off and the time from switching on to switching off is recorded. […]

[4] = tested on: bovine explants (cartilage degradation, liberation of GAG); conditions: pH 5.5, explant cultures (for example from mouse, cow or human); background statement; cited from earlier work

T1 sequence (P07339 65-161 limits assumed): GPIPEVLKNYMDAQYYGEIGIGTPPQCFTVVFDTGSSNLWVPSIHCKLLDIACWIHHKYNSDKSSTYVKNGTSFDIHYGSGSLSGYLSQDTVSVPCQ
T1 sequence (P07339 169-412 limits assumed): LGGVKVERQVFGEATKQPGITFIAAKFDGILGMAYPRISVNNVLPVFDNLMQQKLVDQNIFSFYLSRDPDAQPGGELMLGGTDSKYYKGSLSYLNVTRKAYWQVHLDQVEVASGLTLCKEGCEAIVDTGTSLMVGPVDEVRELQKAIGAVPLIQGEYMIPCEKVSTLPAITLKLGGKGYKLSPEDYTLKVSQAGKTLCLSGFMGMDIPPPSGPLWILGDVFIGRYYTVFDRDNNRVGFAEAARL

- IC50 [1]: 3e-09 M
SMILES: CC[C@H](C)[C@H](NC(=O)C[C@H](O)[C@H](Cc1ccccc1)NC(=O)[C@@H](NC(=O)[C@H](CC(C)C)NC(=O)CC(C)C)C(C)C)C(=O)N[C@H](C(=O)O)C(C)C [Compound 8, (S)-2-[(2S,3S)-2-((3S,4S)-3-hydroxy-4-{(S)-3-methyl-2-[(S)-4-methyl-2-(3-methylbutyrylamino)pentanoylamino]butyrylamino}-5-phenylpentanoylamino)-3-methylpentanoylamino]-3-methylbutyric acid] (Isovaleryl-LV[Ahppa(3S,4S)]IV-OH)
- IC50 [2]: 2.76 nM

- IC50 [1]: 7.51e-08 M
SMILES: CC[C@H](C)[C@H](NC(=O)C[C@H](O)[C@H](Cc1ccccc1)NC(=O)[C@H](NC(=O)[C@H](CC(C)C)NC(=O)CC(C)C)C(C)C)C(=O)N[C@H](C(=O)O)C(C)C [Compound 9, (S)-2-[(2S,3S)-2-((3S,4S)-3-hydroxy-4-{(R)-3-methyl-2-[(S)-4-methyl-2-(3-methylbutyrylamino)pentanoylamino]butyrylamino}-5-phenylpentanoylamino)-3-methylpentanoylamino]-3-methylbutyric acid] (Isovaleryl-L[dV][Ahppa(3S,4S)]IV-OH)
- IC50 [2]: 31.2 nM

The next lines start with the molecule.

SMILES: CC[C@H](C)[C@H](NC(=O)C[C@H](O)[C@H](Cc1ccccc1)NC(=O)[C@@H](NC(=O)c1cccc(-c2ccccc2)c1)C(C)C)C(=O)N[C@H](C(=O)OCc1ccccc1)C(C)C [Compound 23, benzly (S)-2-[(2S,3S)-2-((3S,4S)-4-{(S)-2-[(biphenyl-3-carbonyl)-amino]-3-methylbutyrylamino}-3-hydroxy-5-phenylpentanoylamino)-3-methylpentanoylamino]-3-methylbutyrate]
- IC50 [1]: 1.2e-05 M
- CAR-induced swelling [3]: exhibited no influence on inflammatory swelling
- thermal hyperalgesia (anti-hyperalgesic action) ([3]; rat, Hargreaves method): exerts an anti-hyperalgesic action

SMILES: C[C@]12C=CC(=O)C=C1CC[C@H]1[C@@H]3C[C@@H](O)[C@](O)(C(=O)CO)[C@@]3(C)C[C@H](O)[C@@]12F [TAC, Triamcinolone, reference compound]
- CAR-induced swelling [3]: capable of reducing the CAR-induced swelling

SMILES: CC(C)CC(=O)N[C@H](C(=O)N[C@H](C(=O)N[C@@H](CC(C)C)[C@@H](O)CC(=O)N[C@@H](C)C(=O)N[C@@H](CC(C)C)[C@@H](O)CC(=O)O)C(C)C)C(C)C [pepstatin] (Isovaleryl-VV[Sta]A[Sta]-OH)
- inhibition of autodigestion of the cartilage [4]: inhibited virtually completely

SMILES: CC(C)c1nc(CN(C)C(=O)N[C@H](C(=O)N[C@@H](Cc2ccccc2)C[C@H](O)[C@H](Cc2ccccc2)NC(=O)OCc2cncs2)C(C)C)cs1 [ritonavir]
- inhibition of autodigestion of the cartilage [4]: inhibited virtually completely
